# Experimental data from ChEMBL document CHEMBL1201862, “PubChem BioAssay data set” (2004).
# Calls of active or inactive are those of the source.
# Assays:
# [1] = molecular target: T1, Low molecular weight phosphotyrosine protein phosphatase (Homo sapiens, UniProt P24666); format: functional; settings: read-out: IC50_Mean
# [2] = molecular target: T1, Low molecular weight phosphotyrosine protein phosphatase; format: functional; settings: read-out: IC50_Mean; remark: listed apart in the source
# [3] = viability of uninfected HEp-2 cells – cell-based, HTS, cytotoxicity control for RSV inhibitor project, dose response (AID 2410); format: functional; settings: human respiratory syncytial virus
# [4] = molecular target: T2, Fatty acid synthase (Homo sapiens, UniProt P49327); assay: inhibition of human FAS-TE enzyme activity – biochemical, endpoint fluorescence intensity, uHTS hits, dose response (AID 624327); format: functional;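 note: fluorescence from hydrolysis of an O-methyl fluorescein acyl ester substrate by the enzyme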
# [5] = molecular target: T2, Fatty acid synthase; assay: inhibition of human FAS-TE enzyme activity – biochemical, kinetic fluorescence intensity, dose response (AID 624326); format: functional;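 note: rate of fluorescence rise from hydrolysis of a fluorogenic O-methyl fluorescein ester substrate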
# [6] = cells; format: functional, cell-based
# [7] = molecular target: T3, Nuclear receptor subfamily 0 group B member 1 (Homo sapiens, UniProt P51843); format: functional, cell-based
# T3 sequence (P51843 whole entry): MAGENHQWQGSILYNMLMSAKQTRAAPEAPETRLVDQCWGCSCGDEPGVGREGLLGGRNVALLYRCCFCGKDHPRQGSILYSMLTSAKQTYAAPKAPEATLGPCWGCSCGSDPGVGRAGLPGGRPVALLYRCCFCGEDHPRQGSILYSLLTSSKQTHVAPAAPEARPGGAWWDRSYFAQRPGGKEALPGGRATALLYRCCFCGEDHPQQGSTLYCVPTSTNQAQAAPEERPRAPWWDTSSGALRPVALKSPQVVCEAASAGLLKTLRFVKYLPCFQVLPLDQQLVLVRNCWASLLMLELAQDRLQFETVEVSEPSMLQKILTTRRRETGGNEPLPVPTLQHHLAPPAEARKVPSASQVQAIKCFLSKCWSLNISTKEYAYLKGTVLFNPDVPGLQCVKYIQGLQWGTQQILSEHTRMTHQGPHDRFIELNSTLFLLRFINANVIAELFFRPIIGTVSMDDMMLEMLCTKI
# [8] = molecular target: T4, Probable nicotinate-nucleotide adenylyltransferase (Staphylococcus aureus (strain N315), UniProt P65502); format: functional, Staphylococcus aureus subsp. aureus N315;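 for IC50 Mean: confirmatory dose-response retesting of NadD inhibitor hits first found in an ultra-high-throughput screen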
# [9] = molecular target: T4, Probable nicotinate-nucleotide adenylyltransferase; format: functional, Staphylococcus aureus subsp. aureus N315; settings: read-out: IC50_Mean
# [10] = test system: Vero; assay: viability loss in Vero cells – cell-based, plate reader, cherry-pick samples, cytotoxicity control, dose response (AID 687020); format: functional; settings: Chlorocebus sabaeus
# [11] = molecular target: T5, Caspase-6 (Homo sapiens, UniProt P55212); assay: inhibition of CASP6 peptide cleavage – biochemical, VEID-R110 fluorescence, cherry-pick, dose response (AID 720632)
# T5 sequence (P55212 whole entry): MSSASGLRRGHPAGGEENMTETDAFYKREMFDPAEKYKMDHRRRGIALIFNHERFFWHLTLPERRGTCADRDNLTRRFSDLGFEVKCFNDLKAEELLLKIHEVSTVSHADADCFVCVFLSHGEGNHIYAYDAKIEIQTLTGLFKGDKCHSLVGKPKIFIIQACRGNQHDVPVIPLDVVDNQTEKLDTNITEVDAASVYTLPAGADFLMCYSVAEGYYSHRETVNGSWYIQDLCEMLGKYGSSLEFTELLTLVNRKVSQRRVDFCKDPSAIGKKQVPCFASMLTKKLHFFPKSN
# [12] = molecular target: Beta-lactamase (Salmonella choleraesuis (strain SC-B67), UniProt Q5J463); assay: Epi-absorbance-based counterscreen for selective VIM-2 inhibitors: dose response biochemical high throughput screening assay to identify inhibitors of TEM-1 serine-beta-lactamase.
# [13] = molecular target: T6, Beta-lactamase (Pseudomonas aeruginosa, UniProt Q79MP6); assay: inhibition of IMP-1 beta-lactamase activity – biochemical, epi-absorbance, selectivity assay for VIM-2 inhibitor project, dose response (AID 1920)
# [14] = molecular target: T6, Beta-lactamase; assay: […] counterscreen for selective VIM-2 inhibitors: dose response biochemical high throughput screening assay to identify inhibitors of IMP-1 metallo-beta-lactamase.
# [15] = test system: HEK293; assay: cells; format: functional, cell-based; settings: Homo sapiens
# [16] = molecular target: T3, Nuclear receptor subfamily 0 group B member 1; assay: Luminescence-based cell-based high throughput dose response assay for inhibitors of the orphan nuclear receptor subfamily 0, group B, member 1 (DAX1; NR0B1). [Related pubchem assays (depositor defined):AID504766, AID504790]; format: functional
# [17] = viability loss in HepG2 hepatoma cells – cell-based, ATP luminescence, cherry-pick, activator set 2, cytotoxicity control, dose response (AID 1053143); format: functional
# [18] = test system: Streptococcus sp. 'group A'; assay: Streptococcus pyogenes SK(-)GAS viability under kanamycin – luminescence, BacTiterGlo, confirmation, counter-screen for streptokinase expression inhibitor project, dose response (AID 1900); format: functional, organism-based
# [19] = molecular target: T7, Streptokinase A (Streptococcus pyogenes serotype M1, UniProt P10520); assay: viability-normalized secreted streptokinase activity reduction – plasminogen activation absorbance, OD405, dose response (AID 1914); format: functional, Streptococcus pyogenes M1 GAS;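 note: secreted streptokinase activity via plasminogen activation per viability signal from cell pellet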
# T7 sequence (P10520 whole entry): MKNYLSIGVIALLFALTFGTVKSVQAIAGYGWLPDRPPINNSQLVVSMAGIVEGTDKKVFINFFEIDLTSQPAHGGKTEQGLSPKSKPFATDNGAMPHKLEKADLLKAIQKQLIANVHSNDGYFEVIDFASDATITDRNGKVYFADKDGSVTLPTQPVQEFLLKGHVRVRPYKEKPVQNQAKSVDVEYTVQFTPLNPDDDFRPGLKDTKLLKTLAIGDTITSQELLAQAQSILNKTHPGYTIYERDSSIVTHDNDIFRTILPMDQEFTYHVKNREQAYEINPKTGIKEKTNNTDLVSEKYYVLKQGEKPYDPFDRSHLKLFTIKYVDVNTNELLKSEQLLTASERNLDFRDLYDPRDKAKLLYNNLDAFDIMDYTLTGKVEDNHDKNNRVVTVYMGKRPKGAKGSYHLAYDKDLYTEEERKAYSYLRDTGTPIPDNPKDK
# [20] = test system: Streptococcus; assay: GAS UMAA2166 growth inhibition – luminescence, BacTiterGlo, counter-screen for streptokinase expression inhibitor project, dose response (AID 1915); format: functional, organism-based;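 note: potency for reduction of bacterial viability or growth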
# [21] = molecular target: Nonstructural protein 1 (Influenza A virus, UniProt Q194T2); format: functional, Influenza A virus (A/California/07/2009(H1N1))
# [22] = molecular target: Matrix metalloproteinase-14 (Homo sapiens, UniProt P50281); assay: Dose Response confirmation of uHTS hits for a small molecule inhibitors of MT1-MMP activation in a fluorescence assay set 1.; format: functional
# [23] = molecular target: T8, Protein disulfide-isomerase (Homo sapiens, UniProt P07237); assay: inhibition of PDI-driven insulin aggregation – biochemical, turbidity, absorbance, cherry-picked samples, dose response (AID 602350); format: functional
# [24] = molecular target: T8, Protein disulfide-isomerase; assay: inhibition of PDI-mediated insulin reduction – biochemical, turbidity, absorbance, cherry-picked samples, set 2, dose response (AID 624274); format: functional
# [25] = molecular target: Mu-type opioid receptor (Homo sapiens, UniProt P35372); format: functional, cell-based;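 note: U2OS cells with beta-arrestin recruitment to OPRM1 by beta-gal complementation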
# [26] = molecular target: 5-hydroxytryptamine receptor 2A (Mus musculus, UniProt P35363); format: functional, cell-based;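 note: CHO-K1 cells with tagged receptor and beta-arrestin; agonist potency measured as compound-induced activation of the receptor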
# [27] = molecular target: Long-chain-fatty-acid--AMP ligase FadD28 (Mycobacterium tuberculosis, UniProt P9WQ59); assay: Fluorescence polarization aasay to screen for inhibitors that compete for the binding of FadD28 to a bisubstrate Measured in Biochemical System Using Plate Reader - 2147-01_Inhibitor_Dose_CherryPick_Activity.; format: functional, Mycobacterium tuberculosis H37Rv
# [28] = test system: H9c2; assay: cells; format: functional, cell-based; settings: Rattus norvegicus, H9c2, Myocardium;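 note: confirmatory concentration-response retest of ultra-high-throughput screening hits for modulation of myocardial damage; cell death induced by hydrogen peroxide oxidative stress; compound pretreatment for 60 min then peroxide exposure for 2 h; potency is for protecting the cells against peroxide damage rather than for killing them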
# [29] = molecular target: ATP-dependent translocase ABCB1 (Homo sapiens, UniProt P08183); assay: inhibition of BCRP-mediated JC-1 efflux – Ig-MXP3 cells, flow cytometry, set 2, dose response (AID 504566); format: functional; settings: read-out: EC50_MICROM_;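 note: flow cytometry median green fluorescence of retained JC-1 dye; potency of efflux pump inhibition measured as rising substrate retention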
# [30] = molecular target: Nuclear receptor subfamily 5 group A member 2 (Homo sapiens, UniProt O00482); format: functional, cell-based;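 note: HEK293T cells transfected with LRH-1 and a StAR promoter luciferase reporter; potency for inhibitors that lower LRH-1 driven reporter light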
# [31] = molecular target: Steroidogenic factor 1 (Homo sapiens, UniProt Q13285); assay: Counterscreen for inverse agonists of the liver receptor homolog-1 (LRH-1; NR5A2): Luminescence-based cell-based high throughput dose response assay to identify inverse agonists of the Steroidogenic Factor 1 Nuclear Receptor (SF1; NR5A1).; format: functional
# [32] = nonselective StAR promoter luciferase inhibitors – cell-based, luminescence, luciferase reporter, counter-screen for LRH-1 inverse agonist project, dose response (AID 651969); format: functional
# [33] = A Cell-Based Confirmatory Screen for Compounds that Inhibit VEEV, TC-83 (8).; format: functional
# [34] = T. cruzi growth inhibition in host cells, dose response, cell-based, plate reader, dry powder, set 2 (AID 652275); format: functional
# [35] = molecular target: T9, Aminopeptidase N (Plasmodium falciparum FcB1/Columbia, UniProt O96935); assay: malaria alanyl aminopeptidase activity blockers – biochemical, fluorogenic H-Leu-NHMec substrate, 1536-well (AID 1445); parameters: species or system Plasmodium falciparum 3D7, 3D7
# T9 sequence (O96935 whole entry): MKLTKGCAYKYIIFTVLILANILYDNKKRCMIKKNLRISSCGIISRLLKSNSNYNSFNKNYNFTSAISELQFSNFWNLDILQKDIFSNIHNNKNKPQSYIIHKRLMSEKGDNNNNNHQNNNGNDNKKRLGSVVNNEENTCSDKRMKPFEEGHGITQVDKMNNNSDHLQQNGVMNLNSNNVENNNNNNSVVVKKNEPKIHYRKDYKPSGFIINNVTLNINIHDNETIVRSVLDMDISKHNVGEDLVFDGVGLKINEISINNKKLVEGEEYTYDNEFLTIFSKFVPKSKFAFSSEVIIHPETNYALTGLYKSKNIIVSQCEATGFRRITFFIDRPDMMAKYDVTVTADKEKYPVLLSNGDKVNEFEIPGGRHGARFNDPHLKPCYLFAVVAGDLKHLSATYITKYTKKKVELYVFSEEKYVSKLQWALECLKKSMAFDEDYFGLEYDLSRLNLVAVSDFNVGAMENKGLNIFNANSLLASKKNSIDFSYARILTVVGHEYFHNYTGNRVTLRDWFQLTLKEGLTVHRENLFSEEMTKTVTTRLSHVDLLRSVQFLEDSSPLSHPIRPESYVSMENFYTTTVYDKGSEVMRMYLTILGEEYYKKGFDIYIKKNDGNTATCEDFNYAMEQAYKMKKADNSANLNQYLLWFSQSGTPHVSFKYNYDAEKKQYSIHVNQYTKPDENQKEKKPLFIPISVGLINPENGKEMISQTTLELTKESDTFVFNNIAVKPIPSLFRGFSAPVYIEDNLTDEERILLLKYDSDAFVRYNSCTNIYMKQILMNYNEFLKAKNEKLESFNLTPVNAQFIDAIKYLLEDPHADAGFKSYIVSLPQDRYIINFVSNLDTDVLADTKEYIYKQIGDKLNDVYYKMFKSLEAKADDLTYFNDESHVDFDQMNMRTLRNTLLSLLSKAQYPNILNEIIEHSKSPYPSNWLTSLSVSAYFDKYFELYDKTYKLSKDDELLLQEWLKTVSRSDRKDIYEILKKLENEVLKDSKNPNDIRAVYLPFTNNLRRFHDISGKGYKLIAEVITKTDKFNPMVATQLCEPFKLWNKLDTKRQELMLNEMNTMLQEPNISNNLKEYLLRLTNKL
# [36] = bead-based luminescence quenchers, dual-tagged ARNT – biochemical, AlphaScreen, cherry-pick, artefact control for ARNT-TACC3 interaction inhibitor project, dose response (AID 651705); format: functional;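 note: AlphaScreen bead proximity signal that flags compounds interfering with the detection technology; potency reflects signal decrease which marks the compound as an assay artifact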
# T8 sequence (P07237 whole entry): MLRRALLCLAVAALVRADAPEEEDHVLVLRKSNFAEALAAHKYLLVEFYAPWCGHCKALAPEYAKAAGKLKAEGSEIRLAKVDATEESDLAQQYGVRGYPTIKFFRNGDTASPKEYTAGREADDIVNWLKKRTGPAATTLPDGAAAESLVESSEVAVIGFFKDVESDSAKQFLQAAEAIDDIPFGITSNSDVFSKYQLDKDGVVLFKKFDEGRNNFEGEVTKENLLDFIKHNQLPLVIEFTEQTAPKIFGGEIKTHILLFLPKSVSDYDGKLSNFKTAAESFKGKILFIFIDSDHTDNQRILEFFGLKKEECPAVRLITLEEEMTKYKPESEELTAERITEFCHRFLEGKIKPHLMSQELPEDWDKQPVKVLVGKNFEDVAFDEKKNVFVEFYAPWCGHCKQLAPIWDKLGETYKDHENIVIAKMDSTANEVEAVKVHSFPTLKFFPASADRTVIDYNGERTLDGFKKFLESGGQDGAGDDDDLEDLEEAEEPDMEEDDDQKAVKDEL
# T6 sequence (Q79MP6 whole entry): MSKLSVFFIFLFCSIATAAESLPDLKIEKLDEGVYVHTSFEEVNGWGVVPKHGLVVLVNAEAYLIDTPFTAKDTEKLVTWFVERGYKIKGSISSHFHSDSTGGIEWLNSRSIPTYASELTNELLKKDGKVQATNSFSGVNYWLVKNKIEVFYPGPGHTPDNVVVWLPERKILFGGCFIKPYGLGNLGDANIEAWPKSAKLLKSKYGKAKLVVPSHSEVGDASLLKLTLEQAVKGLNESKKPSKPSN
# T1 sequence (P24666 whole entry): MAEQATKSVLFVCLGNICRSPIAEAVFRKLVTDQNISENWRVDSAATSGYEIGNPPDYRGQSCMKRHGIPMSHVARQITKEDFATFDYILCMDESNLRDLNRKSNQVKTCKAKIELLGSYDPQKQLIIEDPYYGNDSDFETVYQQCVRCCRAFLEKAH
# T2 sequence (P49327 whole entry): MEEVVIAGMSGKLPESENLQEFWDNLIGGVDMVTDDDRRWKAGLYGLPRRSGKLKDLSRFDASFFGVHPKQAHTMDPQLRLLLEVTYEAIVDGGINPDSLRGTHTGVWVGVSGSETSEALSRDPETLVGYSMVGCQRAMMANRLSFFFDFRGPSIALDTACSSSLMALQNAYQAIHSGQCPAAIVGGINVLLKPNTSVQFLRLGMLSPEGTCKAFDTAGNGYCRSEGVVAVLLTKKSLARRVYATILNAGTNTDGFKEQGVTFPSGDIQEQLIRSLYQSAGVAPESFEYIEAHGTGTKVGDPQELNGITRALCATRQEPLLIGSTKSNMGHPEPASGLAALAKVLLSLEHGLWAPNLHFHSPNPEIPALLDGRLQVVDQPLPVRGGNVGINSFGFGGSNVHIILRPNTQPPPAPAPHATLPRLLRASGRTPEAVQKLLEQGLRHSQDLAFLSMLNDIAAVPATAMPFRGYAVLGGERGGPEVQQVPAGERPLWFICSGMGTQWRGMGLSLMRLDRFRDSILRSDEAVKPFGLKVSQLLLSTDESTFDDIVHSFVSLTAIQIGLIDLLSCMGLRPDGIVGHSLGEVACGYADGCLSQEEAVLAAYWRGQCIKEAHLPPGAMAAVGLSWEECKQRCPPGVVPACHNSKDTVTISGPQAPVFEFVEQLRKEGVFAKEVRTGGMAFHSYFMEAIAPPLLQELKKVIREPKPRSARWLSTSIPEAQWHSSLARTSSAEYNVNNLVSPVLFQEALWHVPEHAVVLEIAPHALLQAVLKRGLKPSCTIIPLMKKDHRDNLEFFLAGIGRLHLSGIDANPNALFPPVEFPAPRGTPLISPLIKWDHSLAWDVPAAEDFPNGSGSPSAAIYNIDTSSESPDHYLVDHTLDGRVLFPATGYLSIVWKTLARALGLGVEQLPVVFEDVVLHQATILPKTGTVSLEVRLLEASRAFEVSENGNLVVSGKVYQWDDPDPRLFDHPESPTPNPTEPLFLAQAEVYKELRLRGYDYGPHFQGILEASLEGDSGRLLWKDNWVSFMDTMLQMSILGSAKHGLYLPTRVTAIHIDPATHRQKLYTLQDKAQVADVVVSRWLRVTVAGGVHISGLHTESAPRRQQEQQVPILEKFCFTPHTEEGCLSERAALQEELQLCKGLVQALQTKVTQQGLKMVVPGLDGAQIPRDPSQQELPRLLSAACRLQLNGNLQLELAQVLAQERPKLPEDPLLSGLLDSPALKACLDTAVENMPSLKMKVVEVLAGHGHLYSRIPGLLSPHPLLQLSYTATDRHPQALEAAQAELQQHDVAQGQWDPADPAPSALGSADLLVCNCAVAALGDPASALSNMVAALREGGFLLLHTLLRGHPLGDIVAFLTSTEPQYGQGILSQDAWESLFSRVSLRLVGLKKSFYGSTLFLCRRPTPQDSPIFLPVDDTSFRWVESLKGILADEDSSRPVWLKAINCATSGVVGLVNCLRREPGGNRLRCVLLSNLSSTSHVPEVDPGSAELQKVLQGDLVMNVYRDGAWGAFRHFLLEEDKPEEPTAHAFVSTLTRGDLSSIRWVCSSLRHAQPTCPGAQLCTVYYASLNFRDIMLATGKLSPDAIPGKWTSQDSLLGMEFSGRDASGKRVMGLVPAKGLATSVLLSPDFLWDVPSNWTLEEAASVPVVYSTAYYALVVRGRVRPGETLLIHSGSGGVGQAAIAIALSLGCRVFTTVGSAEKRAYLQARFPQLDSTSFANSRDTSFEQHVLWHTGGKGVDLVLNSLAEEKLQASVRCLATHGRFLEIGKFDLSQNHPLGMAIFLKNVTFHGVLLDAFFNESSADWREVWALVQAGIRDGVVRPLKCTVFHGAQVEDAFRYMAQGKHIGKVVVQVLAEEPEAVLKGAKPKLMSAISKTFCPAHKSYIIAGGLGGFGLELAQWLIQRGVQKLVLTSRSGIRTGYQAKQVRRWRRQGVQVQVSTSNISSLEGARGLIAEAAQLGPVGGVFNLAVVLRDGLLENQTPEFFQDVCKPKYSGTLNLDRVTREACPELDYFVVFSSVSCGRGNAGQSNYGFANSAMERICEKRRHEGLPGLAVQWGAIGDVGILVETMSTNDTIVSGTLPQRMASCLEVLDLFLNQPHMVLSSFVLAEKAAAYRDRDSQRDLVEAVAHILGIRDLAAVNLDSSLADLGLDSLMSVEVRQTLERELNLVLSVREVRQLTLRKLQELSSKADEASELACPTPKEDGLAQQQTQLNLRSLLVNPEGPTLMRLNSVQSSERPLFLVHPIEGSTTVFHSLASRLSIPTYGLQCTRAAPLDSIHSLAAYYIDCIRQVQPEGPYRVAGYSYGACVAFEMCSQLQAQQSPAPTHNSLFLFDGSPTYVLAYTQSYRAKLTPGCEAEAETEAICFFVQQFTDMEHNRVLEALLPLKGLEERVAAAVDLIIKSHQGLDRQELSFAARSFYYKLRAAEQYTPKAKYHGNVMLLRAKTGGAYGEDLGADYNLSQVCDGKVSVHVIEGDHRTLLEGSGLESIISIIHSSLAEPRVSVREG
# T4 sequence (P65502 whole entry): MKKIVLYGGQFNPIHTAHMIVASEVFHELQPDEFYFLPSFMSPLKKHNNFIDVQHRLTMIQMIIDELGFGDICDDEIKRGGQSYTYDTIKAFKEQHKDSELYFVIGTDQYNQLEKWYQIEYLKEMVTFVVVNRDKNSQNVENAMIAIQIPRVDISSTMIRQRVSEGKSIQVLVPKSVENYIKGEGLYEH
# Sequence of Steroidogenic factor 1 (Q13285 whole entry): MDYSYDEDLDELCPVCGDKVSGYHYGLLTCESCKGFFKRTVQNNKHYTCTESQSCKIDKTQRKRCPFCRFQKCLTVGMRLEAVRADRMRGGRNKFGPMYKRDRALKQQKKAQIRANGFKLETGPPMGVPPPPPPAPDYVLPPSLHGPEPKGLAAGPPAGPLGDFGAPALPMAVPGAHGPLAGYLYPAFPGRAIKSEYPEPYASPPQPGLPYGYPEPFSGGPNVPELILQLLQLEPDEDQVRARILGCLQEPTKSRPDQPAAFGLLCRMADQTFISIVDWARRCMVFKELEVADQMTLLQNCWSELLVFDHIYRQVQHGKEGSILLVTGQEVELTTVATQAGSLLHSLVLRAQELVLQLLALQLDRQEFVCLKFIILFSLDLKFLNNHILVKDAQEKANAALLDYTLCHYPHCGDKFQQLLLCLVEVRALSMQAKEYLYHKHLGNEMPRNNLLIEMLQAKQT
# Sequence of Nuclear receptor subfamily 5 group A member 2 (O00482 whole entry): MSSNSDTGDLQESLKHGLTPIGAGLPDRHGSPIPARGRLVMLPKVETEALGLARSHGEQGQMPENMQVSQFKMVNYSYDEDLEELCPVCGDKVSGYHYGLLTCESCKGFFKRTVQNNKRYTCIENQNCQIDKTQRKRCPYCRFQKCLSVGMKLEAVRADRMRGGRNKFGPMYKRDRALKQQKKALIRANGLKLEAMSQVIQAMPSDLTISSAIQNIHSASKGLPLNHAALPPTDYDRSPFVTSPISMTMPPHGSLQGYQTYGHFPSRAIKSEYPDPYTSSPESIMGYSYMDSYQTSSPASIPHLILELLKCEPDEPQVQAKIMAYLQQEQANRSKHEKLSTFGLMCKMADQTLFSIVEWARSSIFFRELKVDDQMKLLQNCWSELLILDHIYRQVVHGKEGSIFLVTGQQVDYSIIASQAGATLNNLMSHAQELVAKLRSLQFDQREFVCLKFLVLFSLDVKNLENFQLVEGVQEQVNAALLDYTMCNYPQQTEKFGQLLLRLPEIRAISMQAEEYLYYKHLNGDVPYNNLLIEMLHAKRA
# Sequence of Nonstructural protein 1 (Q194T2 whole entry): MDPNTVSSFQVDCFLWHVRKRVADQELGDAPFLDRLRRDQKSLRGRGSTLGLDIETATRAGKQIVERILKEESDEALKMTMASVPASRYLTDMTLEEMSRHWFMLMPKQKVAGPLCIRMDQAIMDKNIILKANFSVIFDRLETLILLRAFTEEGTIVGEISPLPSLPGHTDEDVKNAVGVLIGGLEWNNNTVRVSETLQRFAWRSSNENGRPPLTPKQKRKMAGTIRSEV
smiles,measurement,setting,value
CN(C)c1cc(-c2ccc(Cl)c(Cl)c2)oc(=O)c1Cl,IC50,[1],35.4 µM (inactive)
same,IC50,[2],8.63 µM (active)
O=S(=O)(Nc1cccc(-c2ccc(N3CCCCCC3)nn2)c1)c1ccccc1F,CC50,[3],> 50 µM (active)
same,IC50,[4],7.03 µM (active)
same,IC50,[5],6.9 µM (active)
same,IC50,[6],> 67.6 µM (inactive)
same,IC50,[7],> 67.6 µM (inactive)
CCOC(=O)C1=C(C)c2ccccc2N(C(=O)OC)C1(C)C(=O)OCC (stereo unspecified),IC50,[8],15.6 µM (active)
same,IC50,[9],34.6 µM (active)
Cc1c(C(=O)N2CCCC2)oc2ccc(Br)cc12,AC50,[10],35.1 µM (active)
same,AC50,[11],23.5 µM (active)
Sc1nnc(-c2ccccc2)n1Cc1ccccc1,IC50,[12],> 59.6 µM (inactive)
same,IC50,[13],> 59.6 µM (inactive)
same,IC50,[14],> 59.6 µM (inactive)
Cc1ccc(NC(=O)c2ccc(Cl)cc2Cl)cc1O,IC50,[15],> 67.6 µM (inactive)
same,IC50,[16],> 67.6 µM (inactive)
same,AC50,[17],26 µM (active)
Nc1nc(-c2ccccc2)c(N=Nc2cccc3ccccc23)s1,EC50,[18],4.14 µM (active)
same,EC50,[19],> 150 µM (not active)
same,EC50,[20],> 150 µM (not active)
same,IC50,[21],9.98 µM (active)
same,IC50,[22],31.3 µM (inactive)
CC(C)N(C)C(=O)CCc1nnc(CCc2c[nH]c3ccccc23)o1,AC50,[23],< 9 nM (active)
same,AC50,[24],9 nM (active)
CCOc1cc(CN2CCN(C(=O)c3ccco3)CC2)ccc1OC,EC50,[25],92.5 µM (inactive)
same,EC50,[26],5.88 µM (active)
Cc1ccc(NC(S)=NNc2ccc(C(=O)O)cc2[N+](=O)[O-])cc1C,AC50,[27],> 100 µM (inactive)
COc1ccc(-c2cc3nc(C)cc(N4CCN(C(=O)c5ccoc5)CC4)n3n2)cc1,IC50,[28],27.3 µM (active)
same,EC50,[29],6.12 µM (active)
COc1cccc(-c2cnc3c(NC(C)=O)cc(-c4ccc(S(C)(=O)=O)cc4)cn23)c1,IC50,[30],9.25 µM (active)
same,IC50,[31],4.62 µM (active)
same,IC50,[32],23.5 µM (inactive)
CCN1CCN(Cc2nc3ncc([N+](=O)[O-])cc3c(=O)n2-c2ccccc2)CC1,IC50,[33],832 nM (active)
CC(C)N1C[C@@H](CN(C)Cc2ccc(Cl)cc2)Oc2c(NC(=O)c3ccnnc3)cccc2C1=O,AC50,[34],198 nM (active)
O=C(N/N=C\c1cccc([N+](=O)[O-])c1O)C1COc2ccccc2O1 (stereo unspecified),IC50,[35],31.4 µM (active)
same,AC50,[36],90.6 µM (active)
